Assay results published in ChEMBL document CHEMBL5365532, “Discovery of Triazinone Derivatives as Novel, Specific, and Direct NLRP3 Inflammasome Inhibitors for the Treatment of DSS-Induced Ulcerative Colitis” (J Med Chem, 2023).
Activity calls are given as the source filed them. The rule behind the calls is not given here.

Assays:
[1] = molecular target: NACHT, LRR and PYD domains-containing protein 3 (Mus musculus, UniProt Q8R4B8); assay: Inhibition of NLRP3 inflammasome in C57BL/6 mouse BMDM cells assessed as inhibition of LPS/nigericin-induced IL-1 beta secretion pretreated with LPS for 3 hrs followed by incubation with compound for 40 mins and later stimulated with nigericin for 35 mins by ELISA; format: cell-based
THP-1 [2] = assay: Effect on NLRP3 protein expression in PMA-differentiated human THP-1 cells at 0.2 to 0.8 uM pretreated with LPS for 3 hrs followed by incubation with compound for 40 mins and later stimulated with nigericin for 35 mins by western blot analysis; format: functional, cell-based; details: dose 0.2-0.8 µM, time 75.0 min
THP-1 [3] = assay: Effect on ASC protein expression in PMA-differentiated human THP-1 cells at 0.2 to 0.8 uM pretreated with LPS for 3 hrs followed by incubation with compound for 40 mins and later stimulated with nigericin for 35 mins by western blot analysis; format: functional, cell-based; details: dose 0.2-0.8 µM, time 75.0 min
[4] = molecular target: NACHT, LRR and PYD domains-containing protein 3 (Mus musculus) (UniProt Q8R4B8); assay: Inhibition of NLRP3 inflammasome in C57BL/6 mouse BMDM cells assessed as inhibition of LPS/alum-induced IL-1 beta secretion at 0.2 to 0.8 uM pretreated with LPS for 3 hrs followed by incubation with compound for 40 mins and later stimulated with alum for 4 hrs by ELISA; format: cell-based; details: dose 0.2-0.8 µM, time 280.0 min
[5] = molecular target: NLR family CARD domain-containing protein 4 (Mus musculus) (UniProt Q3UP24); assay: Inhibition of NLRC4 inflammasome in C57BL/6 mouse BMDM cells assessed as inhibition of LPS/flagellin-induced IL-1 beta secretion at 0.2 to 0.8 uM pretreated with LPS for 3 hrs followed by incubation with compound for 40 mins and later stimulated with flagellin for 6 hrs by ELISA; format: cell-based; details: dose 0.2-0.8 µM, time 400.0 min
THP-1 [6] = assay: Inhibition of K+ efflux in PMA-differentiated human THP-1 cells at 0.8 to 45 uM pretreated with LPS for 3 hrs followed by incubation with compound for 40 mins and later stimulated with nigericin for 35 mins; format: functional, cell-based; details: dose 0.8-45 µM, time 75.0 min
THP-1 [7] = assay: Inhibition of Cl- efflux in PMA-differentiated human THP-1 cells at 0.8 to 45 uM pretreated with LPS for 3 hrs followed by incubation with compound for 40 mins and later stimulated with nigericin for 35 mins; format: functional, cell-based; details: dose 0.8-45 µM, time 75.0 min
[8] = Cmax in BALB/c mouse at 10 mg/kg, po; format: ADME, organism-based; parameters: dose 10 mg/kg, route po; details: in vivo
[9] = Apparent clearance in BALB/c mouse at 10 mg/kg, po; format: ADME, organism-based; details: in vivo
[10] = AUC (0 to t) in BALB/c mouse at 10 mg/kg, iv; format: ADME, organism-based; parameters: dose 10 mg/kg, route iv; details: in vivo
[11] = MRT (0 to t) in BALB/c mouse at 10 mg/kg, iv; format: ADME, organism-based; details: in vivo
Mus musculus [12] = assay: Antiinflammatory activity against DSS-induced ulcerative colitis C57BL/6 mouse model assessed as decrease in body weight loss at 10 to 30 mg/kg, ip fed with DSS for 6 days followed by administration with compound for 5 days; format: functional, organism-based; details: dose 10-30 mg/kg, time 5.0 day
Mus musculus [13] = assay: Antiinflammatory activity against DSS-induced ulcerative colitis C57BL/6 mouse model assessed as decrease in colon length shortening at 10 to 30 mg/kg, ip fed with DSS for 6 days followed by administration with compound for 5 days and measured on day 11; format: functional, organism-based; details: dose 10-30 mg/kg, time 5.0 day
Mus musculus [14] = assay: Antiinflammatory activity against DSS-induced ulcerative colitis C57BL/6 mouse model assessed as improvement in crypt deformation in colon at 10 to 30 mg/kg, ip fed with DSS for 6 days followed by administration with compound for 5 days and measured on day 11 by H and E staining based analysis; format: functional, organism-based; details: dose 10-30 mg/kg, time 5.0 day

NACHT, LRR and PYD domains-containing protein 3, sequence (Q8R4B8 whole entry, the tested form may be a part): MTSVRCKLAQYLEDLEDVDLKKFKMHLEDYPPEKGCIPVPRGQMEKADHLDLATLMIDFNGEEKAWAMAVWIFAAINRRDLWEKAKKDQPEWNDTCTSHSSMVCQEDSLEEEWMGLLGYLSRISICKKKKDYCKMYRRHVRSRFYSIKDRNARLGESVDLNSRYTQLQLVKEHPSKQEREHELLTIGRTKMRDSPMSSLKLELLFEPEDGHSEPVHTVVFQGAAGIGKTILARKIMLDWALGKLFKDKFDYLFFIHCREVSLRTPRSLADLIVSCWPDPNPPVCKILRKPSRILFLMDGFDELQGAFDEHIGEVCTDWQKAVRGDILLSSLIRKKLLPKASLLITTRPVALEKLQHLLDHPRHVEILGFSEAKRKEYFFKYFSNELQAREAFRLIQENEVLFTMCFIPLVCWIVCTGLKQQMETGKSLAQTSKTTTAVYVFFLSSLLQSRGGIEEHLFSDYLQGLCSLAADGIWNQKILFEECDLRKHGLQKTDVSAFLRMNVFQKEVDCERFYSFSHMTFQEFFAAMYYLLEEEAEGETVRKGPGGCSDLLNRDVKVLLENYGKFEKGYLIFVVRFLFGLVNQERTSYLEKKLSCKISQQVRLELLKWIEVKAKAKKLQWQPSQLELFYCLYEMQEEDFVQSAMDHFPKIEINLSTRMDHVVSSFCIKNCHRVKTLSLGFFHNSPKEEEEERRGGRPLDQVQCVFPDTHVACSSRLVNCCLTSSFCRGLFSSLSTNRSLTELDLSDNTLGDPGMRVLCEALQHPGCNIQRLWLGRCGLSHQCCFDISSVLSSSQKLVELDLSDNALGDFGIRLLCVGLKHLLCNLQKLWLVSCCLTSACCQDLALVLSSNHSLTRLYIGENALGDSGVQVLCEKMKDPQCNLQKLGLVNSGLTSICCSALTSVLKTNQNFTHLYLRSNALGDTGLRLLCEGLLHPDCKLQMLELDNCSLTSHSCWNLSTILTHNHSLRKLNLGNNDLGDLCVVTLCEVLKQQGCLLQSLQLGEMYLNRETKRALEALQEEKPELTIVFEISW
NACHT, LRR and PYD domains-containing protein 3 (Mus musculus), sequence (Q8R4B8 whole entry, the tested form may be a part): as above
NLR family CARD domain-containing protein 4 (Mus musculus), sequence (Q3UP24 whole entry, the tested form may be a part): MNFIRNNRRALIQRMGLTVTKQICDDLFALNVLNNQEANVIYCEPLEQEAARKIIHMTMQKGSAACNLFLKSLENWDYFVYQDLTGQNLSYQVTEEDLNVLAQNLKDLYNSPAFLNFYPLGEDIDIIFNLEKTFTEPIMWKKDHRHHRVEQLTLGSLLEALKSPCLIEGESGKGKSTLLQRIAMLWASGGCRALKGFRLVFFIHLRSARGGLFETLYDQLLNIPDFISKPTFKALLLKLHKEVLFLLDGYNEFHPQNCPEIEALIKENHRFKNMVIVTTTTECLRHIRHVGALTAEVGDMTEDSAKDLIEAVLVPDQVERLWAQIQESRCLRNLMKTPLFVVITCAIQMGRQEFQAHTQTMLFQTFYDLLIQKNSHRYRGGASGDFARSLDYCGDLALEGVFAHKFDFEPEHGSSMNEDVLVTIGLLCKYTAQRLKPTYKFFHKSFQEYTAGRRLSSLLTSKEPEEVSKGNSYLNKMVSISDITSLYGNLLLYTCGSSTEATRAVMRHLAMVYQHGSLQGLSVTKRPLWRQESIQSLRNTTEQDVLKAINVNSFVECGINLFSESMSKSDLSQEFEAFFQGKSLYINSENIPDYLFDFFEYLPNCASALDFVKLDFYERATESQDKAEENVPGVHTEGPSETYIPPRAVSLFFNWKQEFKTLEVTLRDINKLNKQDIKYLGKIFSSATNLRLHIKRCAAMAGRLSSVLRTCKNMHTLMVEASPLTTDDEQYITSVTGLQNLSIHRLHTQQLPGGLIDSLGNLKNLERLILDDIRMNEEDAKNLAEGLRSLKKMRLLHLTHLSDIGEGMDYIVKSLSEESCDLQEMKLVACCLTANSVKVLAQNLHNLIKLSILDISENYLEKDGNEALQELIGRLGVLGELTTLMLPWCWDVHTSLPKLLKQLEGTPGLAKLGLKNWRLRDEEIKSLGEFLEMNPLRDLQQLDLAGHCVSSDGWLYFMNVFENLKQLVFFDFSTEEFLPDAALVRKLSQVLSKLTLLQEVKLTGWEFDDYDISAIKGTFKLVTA

Structure (SMILES): CC(C)c1nn(Cc2nnc(-c3ccc(C(F)(F)F)nc3Cl)o2)c(=O)c2cc3sc(Cl)cc3n12
- IC50 [1]: 380 nM
- Activity (THP-1 [2]): inactive
- Activity (THP-1 [3]): inactive
- inhibition [4]: Active
- inhibition [5]: inactive
- inhibition (THP-1 [6]): inactive
- inhibition (THP-1 [7]): inactive
- Cmax [8]: 437 ng/mL
- CL/F [9]: 144 mL/min/kg
- AUC(0-t) [10]: 5210 ng·h/mL
- MRT last [11]: 1.54 h
- Activity (Mus musculus [12]): Active
- Activity (Mus musculus [13]): Active
- Activity (Mus musculus [14]): Active
